From patent US20130053435A1, “Methods of Treating Alcohol Intoxication, Alcohol Use Disorders and Alcohol Abuse Which Comprises the Administration of Dihydromyricetin” (priority 2011, published 2013) come the findings set out here.

For series [1], the system named is GABAAR α4 subunit. The experiment in a line: Cell-surface biotinylation and Western blot in cultured hippocampal neurons. The format is cell-based, rat. The settings on record: 24 hr. The protocol: Western blots of the cultured neurons were performed and examined as described herein. Biotinylation assays for GABAARs of the cultured neurons were performed as described previously. See Chung W O, et al. (2000) Infect Immun 68(12):6758-6762. Briefly, the neurons in culture dishes were placed on ice and washed twice with ice cold PBS. Then the neurons were incubated for 30 min on ice with PBS containing 1 mg/ml sulfo-NHS-LC-biotin (ProteoChem). After quenching the biotin-reaction with Tris-buffered saline (TBS), neurons were lysed in 150 μl of modified RIPA-buffer (20 mM Tris-HCl (pH 7.5), 150 mM NaCl, 1 mM Na2 EDTA, 1 mM EGTA, 1% NP-40, 1% sodium deoxycholate, 2.5 mM sodium pyrophosphate, 1 mM b-glycerophosphate, 1 mM Na3VO4, and 1 μg/ml leupeptin). The homogenates were centrifuged for 15 min (14,000×g, 4° C.). An aliquot (10%) of the supernatant was removed to measure β-actin. The remaining supernatant was incubated with 60 μl of 50% neutravidin agarose (Pierce Chemical Company) for 4 hr at 4° C. and washed four times with lysis buffer. Agarose-bound proteins were taken up in 20 μl of SDS sample buffer and boiled. Western blots were performed as mentioned above.
The surface expression of α4 subunit in cultured neurons was measured using cell-surface biotinylation followed by Western blot analysis.
(In western blotting, separated proteins are transferred to a membrane and probed.)

Series [2] concerns EtOH withdrawal anxiety in rats. The series is described as follows: Elevated plus-maze (EPM) after EtOH withdrawal. The format is in vivo, rat. The protocol: 48 hr after injection, rats were sub-divided into 3 groups to measure signs of EtOH withdrawal.
Anxiety and locomotion/ataxia associated with EtOH withdrawal was measured on an elevated plus-maze in EtOH-withdrawn rats (EPM, FIG. 12A). Spent time was measured in minutes. The plus-maze was constructed and the measurements were scored as described previously. See Liang et al. (2004) J Pharmacol Exp Ther 310:1234-1245. Briefly, the maze was elevated 1 m above the floor, and contained four 51 cm-long, 11.5 cm-wide arms arranged at right angles. The closed arms had opaque walls 30 cm high, extending the length of the arm. At the time of the test, each animal was placed in the center of the maze facing an open arm and allowed to explore for a 5-min session. During the session, the animal's behavior (e.g. number of arm entries and time spent in each arm per entry) was recorded on a camcorder

The test system of series [3] is voluntary EtOH consumption in rats. The experiment in a line: Intermittent access two-bottle choice voluntary EtOH intake. The conditions noted are these: for EtOH consumption: E+D/water sub-group switched after 4 weeks. The format is in vivo, rat. The protocol: All fluids were presented in 100 ml graduated glass cylinders with stainless-steel drinking spouts inserted 15 min after the lights went off in the reversed light/dark cycle room. Bottles were weighed 30 min and 24 hrs after the fluids were presented. Each rat was weighed daily to monitor health and calculate the grams of ethanol intake per kilogram of body weight.
Sweetener (2 pk/L) was added to every bottle for the first week. Sweetener (1 pk/L) was added to every bottle for the second week. […] Rats had unlimited access to two bottles of water between the EtOH-access periods. The placement of the EtOH bottle was alternated each EtOH drinking session to control for side preferences. Rats were maintained on 20% EtOH intermittent access two-bottle choice paradigm for 7 weeks (21 EtOH-access sessions). […] The rest of the EtOH group continued EtOH-access sessions. EtOH consumption was expressed as grams of EtOH consumed per kilogram of body weight. Rats access to two bottles of water were taken as the control-group. There was no significant difference in body weight between the control and the EtOH-drinking rats at the end of the experiments.

Series [4] can be described thus: Metabolic studies in rats. It is filed as in vivo, rat. The conditions noted are these: DHM oral administration, 1 mg/kg.
The mark [5] stands for this setting: EtOH+DHM (E+D) group, 48 hr withdrawal.

In the case of `O=C1c2c(O)cc(O)cc2O[C@H](c2cc(O)c(O)c(O)c2)[C@H]1O` [DHM, (2R,3R)-3,5,7-trihydroxy-2-(3,4,5-trihydroxyphenyl)-2,3-dihydrochromen-4-one], the α4 surface expression in series [1] (neurons treated with DHM) is listed as 125.0±27.3 % of control. In series [1] (neurons treated with EtOH+DHM), the “α4 subunit surface expression” value is recorded as 123.0±8.4 % of control. In addition, the “time spent in closed arms” value in series [2] (DHM group, 48 hr) turned out to be 1.52 ± 0.56 min; in series [2] (setting [5]), 1.88 ± 0.79 min. Moreover, the “time spent in open arms” value in series [2] (DHM group, 48 hr) worked out at 2.92 ± 0.70 min; in series [2] (setting [5]), 2.68 ± 0.77 min. Moreover, the EtOH-intake in series [3] (E+D/water group, DHM 0.05 mg/ml in 20% EtOH from start) was 2.6 ± 0.4 g/kg/day. The EtOH consumption in series [3] (end of 6th week) was found to be 1.2 ± 0.2 g/kg/day; in series [3] (end of the 5th week), 1.8 ± 1.0 g/kg/day. Besides, in series [4], the “metabolic change (food and water intake, urine volume and stool volume)” value was “no metabolic change”.
